Experiments:
CysLT1 receptor = biological target: T1, CysLT1 receptor (Homo sapiens, UniProt Q9Y271); assay: Human cysteinyl leukotriene receptor 1 (CysLT1) radioligand binding assay; settings: 10 μM concentration; CHO-K1 cells
T1 construct: expressed in transfected cells; host or cells: CHO-K1
T1 sequence (Q9Y271 1-337): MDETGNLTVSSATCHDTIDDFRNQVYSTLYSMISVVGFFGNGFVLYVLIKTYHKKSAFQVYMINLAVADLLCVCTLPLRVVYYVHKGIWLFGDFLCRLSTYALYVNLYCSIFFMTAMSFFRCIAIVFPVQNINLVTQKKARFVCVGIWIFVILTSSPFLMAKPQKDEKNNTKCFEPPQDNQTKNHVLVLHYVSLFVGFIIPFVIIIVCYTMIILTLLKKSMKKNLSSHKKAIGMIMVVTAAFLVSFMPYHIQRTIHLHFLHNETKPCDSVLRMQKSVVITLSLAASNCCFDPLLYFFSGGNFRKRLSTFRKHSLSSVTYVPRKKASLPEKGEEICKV
Experimental: (§1) All compounds were dissolved in dimethyl sulfoxide (DMSO). Final concentration of the DMSO in all tests was 1% (v/v). Inhibition in all tests is considered preferred if it exceeds 50% at 10 μM concentration (or less).
CysLT1 receptor is involved in immune diseases such as asthma, and has clinical significance as a point of intervention in asthma therapy. CysLT1 receptor is expressed in CHO-K1 cells (Chinese hamster ovary cells K1 clone). This is a competitive radioligand binding assay where substances compete with [^3H]-labeled Leulcotirene D4 (LTD4). Radioactive substance is measured with scintillation counting. Percentage of inhibition is calculated from the total radioactivity of the sample.

[1] = tested on: Human prostanoid receptor; assay: Human prostanoid receptor assay ([3H]-PGD2 competition); assay type: binding; settings: 10 μM concentration; CHO-K1
Experimental: as §1
Human prostanoid receptor is expressed in Chinese hamster ovary cell line, clone K1 (CHO-K1). Substances and radioactive competitor (tritium labelled Prostaglandin D2 in 1.7 nM concentration) are incubated with cells in HEPES buffer for 2 hours at 25° C. in the presence of manganese ions. Level of the bound PGD2 is measured by scintillation counting, and competition is calculated from comparing the total amount of the bound PGD2 in treated versus control cells. Prostanoids are involved in many physiological and pathological processes, from inflammation to pain.

TxA2 receptor = biological target: T2, TxA2 receptor (Homo sapiens, UniProt P21731); assay: Human thromboxane A2, TxA2, assay (SQ-29548 competition); assay type: binding; settings: 10 μM concentration; HEK-293
T2 construct: expressed in transfected cells; host or cells: HEK-293
T2 sequence (P21731 1-343): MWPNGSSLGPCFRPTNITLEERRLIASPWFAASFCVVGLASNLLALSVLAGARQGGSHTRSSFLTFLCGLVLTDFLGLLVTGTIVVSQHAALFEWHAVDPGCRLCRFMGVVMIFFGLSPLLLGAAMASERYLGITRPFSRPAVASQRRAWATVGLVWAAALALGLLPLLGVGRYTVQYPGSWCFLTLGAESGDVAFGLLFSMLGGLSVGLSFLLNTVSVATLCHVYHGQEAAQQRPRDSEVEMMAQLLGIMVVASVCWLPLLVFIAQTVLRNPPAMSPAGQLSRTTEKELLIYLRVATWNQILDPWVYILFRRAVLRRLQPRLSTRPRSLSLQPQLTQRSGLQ
Experimental: as §1
TxA2 receptor is expressed in HEK-293 cell line. Compounds and radiolabelled competitor SQ-29548 are incubated for 30 minutes at 25° C. Level of bound SQ-29548 is measured by scintillation counting, and competition is calculated from the total amount of the bound SQ-29548. […] is an unstable lipid mediator involved in blood clotting, and immune processes.

Balb/cJ mice = assay: LPS induced pulmonary neutrophilia in mice; assay type: in vivo, mouse; settings: LPS challenged mice; i.n., i.p. or per os
Experimental: Male Balb/cJ mice (Iffa Credo, France) weighing ˜25 g are randomly grouped into a negative control group, positive control group and groups treated with compounds to be assayed). Test compounds, as well as vehicle (DMSO+0.5% methyl-cellulose) (all from Sigma), are administered i.n., ip. or per os two hours prior to administration of lipopolysaccharide (LPS) (E. coli, serotype 0111:B4, Sigma) or two hours prior and two hours after administration of LPS. Test compounds are administered at a single dose (two hours prior the challenge) or divided into two doses (two hours prior and two hours after the challenge). LPS solution in phosphate buffered saline (PBS) (Sigma) is administered intranasally in volume of 60 μL at concentration of 33,33 μg/mL, to all experimental groups except the negative control group, which received the same volume (60 μL) of vehicle PBS. During the challenge, animals were anaesthetized by using intraperitoneal anaesthesia. Animals are euthanized by i.p. anesthesia overdose approximately 24 hours after application of LPS to obtain bronchoalveolar lavage fluid (BALF), which is used to determine total protein concentration as well as concentrations of cytokines, such as IL-1β and TNF-α, absolute number of cells, and percentage of neutrophils in BALF. Bronchoalveolar lavage (BAL) is performed by infusing 1 mL of PBS divided into 3 separate volumes (0.4, 0.3 and 0.3 ml) through trachea into the lungs. The fluid is immediately withdrawn and the cell suspension stored into previously prepared 1.5 mL Eppendorf tube. Bronchoalveolar lavage fluid (BALF) is then centrifuged at […] for 5 min (4° C.). Cells are resuspended in 700 μL of PBS. To prepare cytospins, 320 μL of suspension is centrifuged at 250 rpm for 10 min (Cytospin-3, Shandon Instruments). Cells are stained with Dif-Quik (Dade Behring) to determine percentage of neutrophils by counting of at least 200 cells. The remaining resuspended cells are used for total cell count in BALF analysis (Sysmex SF 3000). […] Accumulation of granulocytes and mononuclear cells in peribronclhial (PB) and perivascular (PV) lung tissue areas and alveolar spaces is monitored.
Results can be expressed as (I) decrease of absolute cell number per mL in BALF, (II) decrease of number of neutrophils per mL in BALF, (III) reduction of relative number (percentage) of neutrophils in BALF, (IV) reduction of cytokine concentrations in BALF, as well as (V) suppression of accumulation of granulocytes and mononuclear cells in peribronchial (PB) and perivascular (PV) lung tissue areas and in alveolar spaces by pathohistological scoring of treated animals compared to positive control (LPS stimulated, but untreated animals).

| Structure (SMILES) | CysLT1 receptor, competition with [3H]-LTD4 (CysLT1 receptor) | human prostanoid receptor, competition with tritium labelled PGD2 [1] | TxA2 receptor, competition with SQ-29548 (TxA2 receptor) | reduction of percentage of neutrophils and/or their total number in BALF and/or by histological scoring (Balb/cJ mice) |
| --- | --- | --- | --- | --- |
| CC(=O)C(c1c(O)c2cccc(C(C)C)c2oc1=O)c1c(O)c2cccc(C(C)C)c2oc1=O [Example 19] | significantly relevant activity | significantly relevant activity | significantly relevant activity | statistically significant reduction |
| CC(C)c1cccc2c(O)c(C(CO)c3c(O)c4cccc(C(C)C)c4oc3=O)c(=O)oc12 [Example 30] | significantly relevant activity | significantly relevant activity | significantly relevant activity | statistically significant reduction |
| CC(C)c1cccc2c(O)c(C(C(=O)OCCO)c3c(O)c4cccc(C(C)C)c4oc3=O)c(=O)oc12 [Example 50] | significantly relevant activity | significantly relevant activity | significantly relevant activity | statistically significant reduction |
